Experimental findings from patent publication US10774051B2, “6-membered heterocyclic derivatives and pharmaceutical composition comprising the same” (Shionogi & Co., Ltd., priority 2015, dated 2020) are described below.

One experiment concerns the target human P2X7 receptor (Homo sapiens, UniProt Q99572, R270H/Y155H). Put plainly: Evaluation of human P2X7 receptor inhibitory activity (Yo-Pro uptake, BzATP stimulation, FLIPR TETRA). The following applies: 1321N1 cells stably expressing human P2X7 receptor; BzATP stimulation, Yo-Pro uptake; read-out: IC50 (antagonistic activity for the human P2X7 receptor). The format is cell-based. Here is the method: Stably expressing cell line (1321N1 cell transfected with the human P2X7 receptor gene (GenBank accession number NM_002562.5 including T606C and G952A SNP)) was used. The cells were seeded in a 384-well microtiter plate at a concentration of 8000 cells/well and cultured in the medium (10% fetal bovine serum, 25 mM HEPES, 1% penicillin and streptomycin in DMEM) for one day at 37° C. under 5% carbon dioxide atmosphere. After replacing with 20 μL of the HBSS buffer (20 mM HEPES, 55.6 mM D-glucose, 1×HBSS(−), pH7.4-7.5), 15 μL of 17.3 μM Yo-Pro solution in the HBSS buffer was added. The plate was placed in high-throughput cellular screening system FLIPR TETRA (Molecullar Devices, LLC.) and 15 μL of 130 μM BzATP solution in the HBSS buffer was added. Measurement of fluorescence intensity by FLIPR TETRA was started. After eight minutes, 15 μL of DMSO solutions containing different concentrations of the compound of the present invention as prepared by dilution with the HBSS buffer were dispensed to each well through the built-in automatic dispenser, and the measurement of fluorescence intensity was continued for 20 minutes. […] Changing values of fluorescence intensity by the compound of the present invention were calculated by difference between maximum and minimum fluorescence intensity for 20 minutes. Inhibition ratios (%) were calculated from the following equation:
[formula] IC50 was calculated using logistic approximation.
For the compound `COc1ccccc1Nc1nc(=O)c(OC)cn1Cc1ccc(F)c(F)c1` [Compound I-0675], the IC50 is 0.19 µM. Still for that read-out and setting: the result for `COc1cn(Cc2ccc(F)c(C)c2)c(Nc2cccc(Cl)c2C)nc1=O` [Compound I-0520] reads 0.009 µM; that for `Cc1c(Cl)cccc1Nc1nc(=O)c(C#N)cn1Cc1ccccc1` [Compound I-0013], 0.039 µM; that for `COc1cn(Cc2cc(F)cc(Cl)c2)c(Nc2cccc3sccc23)nc1=O` [Compound I-0670], 0.02 µM.

The same experiment, now with this note: 1321N1 cells stably expressing human P2X7 receptor; BzATP stimulation, Yo-Pro uptake; read-out: IC50 (antagonistic activity for the human P2X7 receptor), class symbol.
Regarding `CCc1cc2c(cc1Nc1nc(=O)c(OC)cn1Cc1ccccc1Cl)CCC2` [Compound I-0194], the IC50 was 0.01 to 0.1 µM. Still for that read-out and setting: the result for `COc1cn(Cc2ccccc2)c(Nc2cc(C)c(F)cc2C)nc1=O` [Compound I-0433] reads below 0.01 µM. Regarding `COc1cn(Cc2ccccc2)c(Nc2cc(CO)c(C)cc2C)nc1=O` [Compound I-0278], the IC50 is below 0.01 µM.

As to `COc1cn(Cc2ccccc2Cl)c(Nc2cc(C)c(Cl)cc2C)nc1=O` [Compound I-0170], the IC50 was 0.1 to 0.5 µM.

In the case of `Cc1ccc(-c2nnco2)cc1Nc1nc(=O)c(F)cn1Cc1ccc(F)c(F)c1` [Compound I-0380], the IC50 lay within 0.01 to 0.1 µM. Still for that read-out and setting: the value for `CCc1ccc(Cl)cc1Nc1nc(=O)c(OC)cn1Cc1ccc(F)c(Cl)c1` [Compound I-0389] was below 0.01 µM; that for `COc1cc(C)cc(Nc2nc(=O)c(OC)cn2Cc2ccc(F)c(Cl)c2)c1C` [Compound I-0460] was 0.01 to 0.1 µM. The same measure, in the same setting: the value for `COc1cn(Cc2cccc(F)c2)c(Nc2cccc(C)c2C)nc1=O` [Compound I-0323] was below 0.01 µM; that for `COc1cn(Cc2cccc(Cl)c2)c(Nc2cc3sc(C)nc3cc2C)nc1=O` [Compound I-0562] was 0.01 to 0.1 µM; that for `COc1cn(Cc2ccccc2)c(Nc2cccc3c(=O)[nH]ccc23)nc1=O` [Compound I-0392] was 0.01 to 0.1 µM. Take `COc1ccccc1Cn1cc(OC)c(=O)nc1Nc1cccc(Cl)c1C` [Compound I-0054]: the IC50 lay within 0.1 to 0.5 µM. Same read-out and setting: the value for `COc1cn(Cc2cccc(F)c2F)c(Nc2cccc(Cl)c2C)nc1=O` [Compound I-0286] was 0.01 to 0.1 µM. In the case of `COc1cn(Cc2ccccc2)c(Nc2cccc(OC(F)F)c2C)nc1=O` [Compound I-0093], the IC50 lay within 0.01 to 0.1 µM. Still for that read-out and setting: the value for `CCc1ccc(Cl)cc1Nc1nc(=O)c(OC)cn1Cc1ccc(F)cc1` [Compound I-0388] was 0.01 to 0.1 µM; that for `CCc1c(Nc2nc(=O)c(F)cn2Cc2ccc(F)cc2)cc(OC)cc1OC` [Compound I-0314] was below 0.01 µM. Take `COc1cc(Nc2nc(=O)c(OC)cn2Cc2ccccc2)c(C)cc1Cl` [Compound I-0473]: the IC50 was below 0.01 µM. Turning to `COc1cn(Cc2ccccc2COC(F)F)c(Nc2cccc(Cl)c2C)nc1=O` [Compound I-0447], the IC50 was below 0.01 µM. Still for that read-out and setting: the result for `COc1cn(Cc2cccc(F)c2)c(Nc2cc3c(cc2C)OCCO3)nc1=O` [Compound I-0288] reads 0.01 to 0.1 µM; that for `CCc1cccc(Nc2nc(=O)c(OC)cn2Cc2ccccc2)c1CC` [Compound I-0136], below 0.01 µM; that for `Cc1c(Cl)cccc1Nc1nc(=O)c(Cl)cn1Cc1ccccc1` [Compound I-0011], 0.01 to 0.1 µM.

With `COc1cn(Cc2cccc(Cl)c2)c(Nc2cc3c(cc2C)OCCO3)nc1=O` [Compound I-0290], the IC50 fell in the range of 0.01 to 0.1 µM. For the compound `COc1cn(Cc2ccccc2)c(Nc2cc(Cl)c(Cl)cc2C)nc1=O` [Compound I-0464], the IC50 was below 0.01 µM. Consider `COc1cn(Cc2ccc(F)c(F)c2)c(Nc2ccc(OC(F)F)cc2C)nc1=O` [Compound I-0516], for which the IC50 was in the range of 0.01 to 0.1 µM. On the same count and under the same terms, the result for `COc1cn(Cc2ccccc2)c(Nc2ccc(Br)cc2Cc2ccccc2)nc1=O` [Compound I-0184] reads 0.1 to 0.5 µM.

As for `COc1cn(Cc2ccccc2)c(Nc2cccc(OC(C)C)c2C)nc1=O` [Compound I-0129], the IC50 lay within 0.1 to 0.5 µM. Still for that read-out and setting: the value for `Cc1c(Cl)cccc1Nc1nc(=O)c(NC(=O)OC(C)(C)C)cn1Cc1ccccc1` [Compound I-0021] was 0.1 to 0.5 µM; that for `COc1cn(Cc2ccccc2)c(Nc2cc(Cl)cc(Cl)c2Cl)nc1=O` [Compound I-0145] was 0.01 to 0.1 µM. On the same count and under the same terms, the result for `COc1cccc(Nc2nc(=O)c(OC)cn2Cc2cc(F)cc(Cl)c2)c1C` [Compound I-0509] reads below 0.01 µM.

Staying with this experiment, now noted: antagonistic activity for the human P2X7 receptor; read-out: IC50.
As for `COc1cc(Nc2nc(=O)c(OC)cn2Cc2cc(F)c(F)c(F)c2)c(C)cc1F` [Compound I-0863], the IC50 is below 0.01 µM.

Turning to `CCOc1ccc(Nc2nc(=O)c(OC)cn2Cc2ccc(F)c(F)c2)c(C)c1` [Compound I-0678], the IC50 was below 0.01 µM.

Turning to `COc1cc(C)c(Nc2nc(=O)c(OC)cn2Cc2cc(F)cc(Cl)c2)cc1Cl` [Compound I-0672], the IC50 is below 0.01 µM. Turning to `Cc1cc(OC(F)F)c(C)cc1Nc1nc(=O)c(Cl)cn1Cc1ccc(F)c(F)c1` [Compound I-0838], the IC50 was below 0.01 µM.

Regarding `COc1cn(Cc2ccc(F)c(F)c2)c(Nc2cc(OC(F)(F)F)ccc2C)nc1=O` [Compound I-0693], the IC50 lay in the range of 0.01 to 0.1 µM.

Consider `C=C(C)c1ccc(C)c(Nc2nc(=O)c(OC)cn2Cc2ccc(F)c(Cl)c2)c1` [Compound I-0723], for which the IC50 was 0.01 to 0.1 µM.

For `COc1cc(Nc2nc(=O)cnn2Cc2cc(F)c(F)c(F)c2)c(C)cc1Cl` [Compound I-1279], the IC50 was below 0.01 µM. Take `COc1ccc(Nc2nc(=O)cnn2Cc2ccccc2F)c(C)c1` [Compound I-1275]: the IC50 lay within 0.1 to 0.5 µM.

In the case of `Cc1cc2c(cc1Nc1nc(=O)c(F)cn1Cc1cc(F)c(F)c(F)c1)CCO2` [Compound I-1046], the IC50 is below 0.01 µM. For `Cc1cc(C)c(Nc2nc(=O)c(F)cn2Cc2cc(F)cc(F)c2)cc1CO` [Compound I-1111], the IC50 is below 0.01 µM. The same measure, in the same setting: the value for `COc1cn(Cc2ccc(F)c(Cl)c2)c(Nc2cc(C)c(OCC(F)(F)F)cc2C)nc1=O` [Compound I-0807] was 0.01 to 0.1 µM; that for `CCOc1cc(Nc2nc(=O)c(F)cn2Cc2ccc(F)c(F)c2)c(C)cc1F` [Compound I-1033] was below 0.01 µM. The same measure, in the same setting: the value for `COc1ccc(Nc2nc(=O)c(OC)cn2Cc2cc(F)cc(Cl)c2)c(C)c1` [Compound I-0608] was 0.01 to 0.1 µM; that for `COc1cn(Cc2ccccc2)c(Nc2cc(-c3ccc(C)o3)ccc2C)nc1=O` [Compound I-0658] was 0.01 to 0.1 µM; that for `CCOc1cc(Nc2nc(=O)c(OC)cn2Cc2cc(F)c(F)c(F)c2)c(C)cc1C` [Compound I-0777] was below 0.01 µM. Still for that read-out and setting: the result for `COc1ccc(Nc2nc(=O)c(F)cn2Cc2cc(F)c(F)c(F)c2)c(Cl)c1` [Compound I-1186] reads below 0.01 µM.

In the case of `COCc1ccc(C)c(Nc2nc(=O)c(F)cn2Cc2cc(F)cc(F)c2)c1` [Compound I-0996], the IC50 lay in the range of 0.01 to 0.1 µM.

Turning to `COc1cn(Cc2ccc(F)c(F)c2)c(Nc2cccc3c(=O)n(C)ccc23)nc1=O` [Compound I-0903], the IC50 lay within 0.01 to 0.1 µM. The same measure, in the same setting: the result for `Cc1ccc(F)cc1Nc1nc(=O)c(CO)nn1Cc1cc(F)c(F)c(F)c1` [Compound I-1253] reads 0.01 to 0.1 µM. Still for that read-out and setting: the result for `Cc1nc2cc(Cl)c(Nc3nc(=O)c(F)cn3Cc3ccc(F)c(Cl)c3)cc2o1` [Compound I-1077] reads below 0.01 µM; that for `O=c1nc(Nc2cccc3cnccc23)n(Cc2cc(F)c(F)c(F)c2)cc1F` [Compound I-1096], 0.01 to 0.1 µM.

As for `CCc1ccccc1Nc1nc(=O)c(F)cn1Cc1cc(F)c(F)c(F)c1` [Compound I-1176], the IC50 was below 0.01 µM. The same measure, in the same setting: the value for `CCc1cc2c(cc1Nc1nc(=O)c(OC)cn1Cc1ccc(F)c(Cl)c1)OCCO2` [Compound I-0798] was 0.01 to 0.1 µM. Still for that read-out and setting: the value for `CCc1cc(Br)ccc1Nc1nc(=O)c(OC)cn1Cc1cc(F)cc(F)c1` [Compound I-0630] was below 0.01 µM; that for `Cc1cc2c(cc1Nc1nc(=O)c(F)cn1Cc1ccc(F)c(F)c1)CCO2` [Compound I-1072] was below 0.01 µM; that for `COc1cn(Cc2cc(F)cc(F)c2)c(Nc2cc(OC(F)(F)F)ccc2C)nc1=O` [Compound I-0695] was 0.01 to 0.1 µM. Still for that read-out and setting: the result for `COc1cn(Cc2ccc(F)c(F)c2)c(Nc2cc3sc(C)nc3cc2C)nc1=O` [Compound I-0665] reads below 0.01 µM; that for `COc1cn(Cc2ccc(F)c(Cl)c2)c(Nc2ccccc2Cc2ccccn2)nc1=O` [Compound I-0595], below 0.01 µM. Take `CCOC(=O)c1cn(Cc2cc(F)c(F)c(F)c2)c(Nc2ccc(OC(F)F)cc2C)nc1=O` [Compound I-1121]: the IC50 was in the range of 0.1 to 0.5 µM. Take `Cc1ccc(-c2ncco2)cc1Nc1nc(=O)c(Cl)cn1Cc1ccc(F)c(F)c1` [Compound I-0853]: the IC50 is below 0.01 µM. On the same count and under the same terms, the result for `CCOc1ccc(C)c(Nc2nc(=O)c(F)cn2Cc2cc(F)c(F)c(F)c2)c1` [Compound I-1007] reads below 0.01 µM; that for `CCc1ccc(F)c(Nc2nc(=O)c(F)cn2Cc2cc(F)c(F)c(F)c2)c1` [Compound I-1218], below 0.01 µM; that for `CCOC(=O)c1cn(Cc2cc(F)c(F)c(F)c2)c(Nc2cc(OC)c(F)cc2C)nc1=O` [Compound I-1122], 0.01 to 0.1 µM. On the same count and under the same terms, the result for `COc1cn(Cc2ccc(F)c(Cl)c2)c(Nc2cc(-c3ccccc3)ccc2C)nc1=O` [Compound I-0828] reads 0.01 to 0.1 µM.
